# Test results published in patent US6737383B1, “Herbicidal oxadiazolidines” (priority 1999, dated 2004).
# Columns and labels:
# purple nutsedge = test: Test B pre/postemergence purple nutsedge; type: in vivo, Cyperus rotundus
# Method in brief: (§1)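 Response is a visual 0-to-10 score relative to untreated plants, where 0 means no effect and 10 means complete control, taken twelve to sixteen days after application. Treatments went onto soil at planting and onto foliage of 1- to 4-leaf plants, using a surfactant-containing non-phytotoxic solvent.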
# smallflower flatsedge = test: Test B flood test smallflower flatsedge; type: in vivo, Cyperus difformis; details: for S. Flatsedge plant response rating: Postemergence section (flood test species)
# Method in brief: (§2)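 Read-out is a visual response score from 0 (no effect) to 10 (complete control), assigned by comparison with untreated controls. Treatment was applied at the 2-leaf stage, and plants stayed in the greenhouse for twelve to sixteen days before scoring.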
# duck salad = test: Test B flood test duck salad; type: in vivo, Heteranthera limosa
# Method in brief: as §2
# surinam grass = test: Test B pre/postemergence surinam grass; type: in vivo, Brachiaria decumbens
# Method in brief: as §1
# velvetleaf = test: Test B pre/postemergence velvetleaf; type: in vivo, Abutilon theophrasti
# Method in brief: as §1
# rape = test: Test B pre/postemergence rape; type: in vivo, Brassica napus
# Method in brief: as §1
# soybean = test: Test B pre/postemergence soybean; type: in vivo, Glycine max
# Method in brief: as §1
# blackgrass = test: Test B pre/postemergence blackgrass; type: in vivo, Alopecurus myosuroides
# Method in brief: as §1
# giant foxtail = test: Test B pre/postemergence giant foxtail; type: in vivo, Setaria faberii
# Method in brief: as §1
# cocklebur = test: Test B pre/postemergence cocklebur; type: in vivo, Xanthium strumarium
# Method in brief: as §1
# wild oat = test: Test B pre/postemergence wild oat; type: in vivo, Avena fatua
# Method in brief: as §1
# pigweed = test: Test B pre/postemergence pigweed; type: in vivo, Amaranthus retroflexus
# Method in brief: as §1
# sugar beet = test: Test B pre/postemergence sugar beet; type: in vivo, Beta vulgaris
# Method in brief: as §1
# wheat = test: Test B pre/postemergence wheat; type: in vivo, Triticum aestivum
# Method in brief: as §1
# corn = test: Test B pre/postemergence corn; type: in vivo, Zea mays
# Method in brief: as §1
# crabgrass = test: Test B pre/postemergence crabgrass; type: in vivo, Digitaria sanguinalis
# Method in brief: as §1
# morningglory = test: Test B pre/postemergence morningglory; type: in vivo, Ipomoea hederacea
# Method in brief: as §1
# rice = test: Test B flood test rice; type: in vivo, Oryza sativa; details: for Rice plant response rating: Postemergence section (flood test species)
# Method in brief: as §2
# bamyardgrass = test: Test B flood test barnyardgrass; type: in vivo, Echinochloa crus-galli
# Method in brief: as §2
# [1] = Postemergence, Rate 250 g/ha, scale 0 to 10, 0 is no effect, 10 is complete control
# [2] = Postemergence, Rate 500 g/ha, scale of 0 to 10 where 0 is no effect and 10 is complete control
# [3] = Preemergence, Rate 62 g/ha, scale 0 to 10 (0 no effect, 10 complete control)
# [4] = Preemergence, Rate 125 g/ha, scale of 0 to 10 where 0 is no effect and 10 is complete control
# [5] = Preemergence, Rate 250 g/ha, scale 0 to 10, 0 is no effect, 10 is complete control
# [6] = Preemergence, Rate 500 g/ha, scale 0 to 10, 0 is no effect, 10 is complete control
# [7] = Rate 125 g/ha, Postemergence, scale 0 to 10, 0 is no effect, 10 is complete control
# [8] = Rate 500 g/ha, scale of 0 to 10 where 0 is no effect and 10 is complete control
# [9] = Rate 125 g/ha, scale 0 to 10, 0 is no effect, 10 is complete control
# [10] = flood test species, listed under Postemergence, Rate 250 g/ha, scale 0 to 10, 0 is no effect, 10 is complete control
# [11] = Postemergence section (flood test species), Rate 500 g/ha, scale of 0 to 10 where 0 is no effect and 10 is complete control
# [12] = Rate 62 g/ha, Postemergence (flood test species), scale of 0 to 10 where 0 is no effect and 10 is complete control
# [13] = Rate 125 g/ha, Postemergence section (flood test species), scale 0 to 10, 0 is no effect, 10 is complete control
# [14] = Preemergence, Rate 250 g/ha, scale of 0 to 10 where 0 is no effect and 10 is complete control
# [15] = Rate 62 g/ha, Postemergence, scale of 0 to 10 where 0 is no effect and 10 is complete control
structure (smiles),measurement,setting,value
CC(C)N(C(=O)n1oc(=O)n(CCl)c1=O)c1ccccc1 [Compound 423],"Plant response rating, Nutsedge",purple nutsedge; [1],0
same,Nutsedge plant response rating,purple nutsedge; [2],0
same,"Plant response rating, Nutsedge",purple nutsedge; [3],0
same,"Plant response rating, Nutsedge",purple nutsedge; [4],0
same,Nutsedge plant response rating,purple nutsedge; [5],0
same,Nutsedge plant response rating,purple nutsedge; [6],0
same,Nutsedge plant response rating,purple nutsedge; [7],0
same,S. Flatsedge plant response rating,smallflower flatsedge; [8],0
same,S. Flatsedge plant response rating,smallflower flatsedge; [9],0
same,"Plant response rating, S. Flatsedge",smallflower flatsedge; [10],0
same,Ducksalad plant response rating,duck salad; [11],0
same,Ducksalad plant response rating,duck salad; [12],0
same,Ducksalad plant response rating,duck salad; [13],0
same,"Plant response rating, Ducksalad",duck salad; [10],0
same,"Plant response rating, B. signalgrass",surinam grass; [1],0
same,B. signalgrass plant response rating,surinam grass; [2],0
same,"Plant response rating, B. signalgrass",surinam grass; [3],0
same,"Plant response rating, B. signalgrass",surinam grass; [4],0
same,B. signalgrass plant response rating,surinam grass; [14],0
same,B. signalgrass plant response rating,"surinam grass; Preemergence, Rate 500 g/ha, scale of 0 to 10 where 0 is no effect and 10 is complete control",0
same,B. signalgrass plant response rating,surinam grass; [15],0
same,B. signalgrass plant response rating,surinam grass; [7],0
same,"Plant response rating, Velvetleaf",velvetleaf; [1],0
same,Velvetleaf plant response rating,velvetleaf; [2],0
same,"Plant response rating, Velvetleaf",velvetleaf; [3],0
same,"Plant response rating, Velvetleaf",velvetleaf; [4],0
same,Velvetleaf plant response rating,velvetleaf; [5],0
same,Velvetleaf plant response rating,velvetleaf; [6],0
same,Velvetleaf plant response rating,velvetleaf; [7],0
same,"Plant response rating, Rape",rape; [1],0
same,Rape plant response rating,rape; [2],0
same,"Plant response rating, Rape",rape; [3],0
same,"Plant response rating, Rape",rape; [4],0
same,Rape plant response rating,rape; [5],0
same,Rape plant response rating,rape; [6],0
same,Rape plant response rating,rape; [7],0
same,"Plant response rating, Soybean",soybean; [1],2
same,Soybean plant response rating,soybean; [2],2
same,"Plant response rating, Soybean",soybean; [3],0
same,"Plant response rating, Soybean",soybean; [4],0
same,Soybean plant response rating,soybean; [5],0
same,Soybean plant response rating,soybean; [6],0
same,Soybean plant response rating,soybean; [7],2
same,"Plant response rating, Blackgrass",blackgrass; [1],0
same,Blackgrass plant response rating,blackgrass; [2],2
same,"Plant response rating, Blackgrass",blackgrass; [3],0
same,"Plant response rating, Blackgrass",blackgrass; [4],0
same,Blackgrass plant response rating,blackgrass; [14],0
same,Blackgrass plant response rating,blackgrass; [6],0
same,Blackgrass plant response rating,blackgrass; [15],0
same,Blackgrass plant response rating,blackgrass; [7],0
same,"Plant response rating, Giant foxtail",giant foxtail; [1],0
same,Giant foxtail plant response rating,giant foxtail; [2],2
same,"Plant response rating, Giant foxtail",giant foxtail; [3],0
same,"Plant response rating, Giant foxtail",giant foxtail; [4],0
same,Giant foxtail plant response rating,giant foxtail; [5],3
same,Giant foxtail plant response rating,giant foxtail; [6],4
same,Giant foxtail plant response rating,giant foxtail; [15],0
same,Giant foxtail plant response rating,giant foxtail; [7],0
same,"Plant response rating, Cocklebur",cocklebur; [1],0
same,Cocklebur plant response rating,cocklebur; [2],0
same,"Plant response rating, Cocklebur",cocklebur; [3],0
same,"Plant response rating, Cocklebur",cocklebur; [4],0
same,Cocklebur plant response rating,cocklebur; [5],0
same,Cocklebur plant response rating,cocklebur; [6],0
same,Cocklebur plant response rating,cocklebur; [15],0
same,Cocklebur plant response rating,cocklebur; [7],0
same,Wild oats plant response rating,wild oat; [2],0
same,"Plant response rating, Wild oats",wild oat; [3],0
same,"Plant response rating, Wild oats",wild oat; [4],0
same,Wild oats plant response rating,wild oat; [5],0
same,Wild oats plant response rating,wild oat; [6],0
same,Wild oats plant response rating,wild oat; [7],0
same,"Plant response rating, Redroot pigweed",pigweed; [1],0
same,Redroot pigweed plant response rating,pigweed; [2],0
same,"Plant response rating, Redroot pigweed",pigweed; [3],0
same,"Plant response rating, Redroot pigweed",pigweed; [4],0
same,Redroot pigweed plant response rating,pigweed; [5],0
same,Redroot pigweed plant response rating,pigweed; [6],0
same,Redroot pigweed plant response rating,pigweed; [7],0
same,"Plant response rating, Sugarbeets",sugar beet; [1],0
same,Sugarbeets plant response rating,sugar beet; [2],0
same,"Plant response rating, Sugarbeets",sugar beet; [3],0
same,"Plant response rating, Sugarbeets",sugar beet; [4],0
same,Sugarbeets plant response rating,sugar beet; [5],0
same,Sugarbeets plant response rating,sugar beet; [6],0
same,Sugarbeets plant response rating,sugar beet; [7],0
same,Wheat plant response rating,wheat; [2],0
same,"Plant response rating, Wheat",wheat; [3],0
same,"Plant response rating, Wheat",wheat; [4],0
same,Wheat plant response rating,wheat; [5],0
same,Wheat plant response rating,wheat; [6],0
same,Wheat plant response rating,wheat; [7],0
same,"Plant response rating, Corn",corn; [1],0
same,Corn plant response rating,corn; [2],0
same,"Plant response rating, Corn",corn; [3],0
same,"Plant response rating, Corn",corn; [4],0
same,Corn plant response rating,corn; [5],0
same,Corn plant response rating,corn; [6],0
same,Corn plant response rating,corn; [15],0
same,Corn plant response rating,corn; [7],0
same,"Plant response rating, Crabgrass",crabgrass; [1],0
same,Crabgrass plant response rating,crabgrass; [2],1
same,"Plant response rating, Crabgrass",crabgrass; [3],0
same,"Plant response rating, Crabgrass",crabgrass; [4],0
same,Crabgrass plant response rating,crabgrass; [6],2
same,Crabgrass plant response rating,crabgrass; [15],0
same,Crabgrass plant response rating,crabgrass; [7],0
same,Morningglory plant response rating,morningglory; [2],8
same,"Plant response rating, Morningglory",morningglory; [3],0
same,"Plant response rating, Morningglory",morningglory; [4],0
same,Morningglory plant response rating,morningglory; [5],0
same,Morningglory plant response rating,morningglory; [6],0
same,Morningglory plant response rating,morningglory; [7],2
same,Rice plant response rating,rice; [8],0
same,Rice plant response rating,rice; [9],0
same,"Plant response rating, Rice",rice; [10],0
same,Barnyardgrass plant response rating,bamyardgrass; [11],0
same,Barnyardgrass plant response rating,bamyardgrass; [12],0
same,Barnyardgrass plant response rating,bamyardgrass; [13],0
same,"Plant response rating, Barnyardgrass",bamyardgrass; [10],0
